Laboratory results taken from publication PMC11602153, “Differential redox sensitivity of tRNA dihydrouridylation” (Nucleic Acids Research, 2024).

What was measured:
DusA = target: T1, DusA (Escherichia coli, UniProt P32695); assay: flavin bound to the purified protein; type: binding; settings: non-covalent; flavin named FMN elsewhere in the paper
T1 construct: expression construct, tags and host not described
T1 sequence (P32695 1-345): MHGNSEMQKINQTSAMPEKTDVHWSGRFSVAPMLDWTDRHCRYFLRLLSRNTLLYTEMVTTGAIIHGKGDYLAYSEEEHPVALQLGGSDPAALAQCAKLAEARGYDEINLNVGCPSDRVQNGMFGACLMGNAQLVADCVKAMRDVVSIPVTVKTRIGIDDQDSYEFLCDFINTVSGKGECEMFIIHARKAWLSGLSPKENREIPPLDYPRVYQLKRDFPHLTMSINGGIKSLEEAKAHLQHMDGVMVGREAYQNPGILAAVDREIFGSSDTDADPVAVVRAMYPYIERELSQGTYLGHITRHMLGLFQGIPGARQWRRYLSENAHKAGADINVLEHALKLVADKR

DusC = target: T2, DusC (Escherichia coli, UniProt P33371); assay: flavin bound to the purified protein; type: binding; settings: non-covalent; flavin named FMN elsewhere in the paper
T2 construct: expression construct, tags and host not described
T2 sequence (P33371 1-315): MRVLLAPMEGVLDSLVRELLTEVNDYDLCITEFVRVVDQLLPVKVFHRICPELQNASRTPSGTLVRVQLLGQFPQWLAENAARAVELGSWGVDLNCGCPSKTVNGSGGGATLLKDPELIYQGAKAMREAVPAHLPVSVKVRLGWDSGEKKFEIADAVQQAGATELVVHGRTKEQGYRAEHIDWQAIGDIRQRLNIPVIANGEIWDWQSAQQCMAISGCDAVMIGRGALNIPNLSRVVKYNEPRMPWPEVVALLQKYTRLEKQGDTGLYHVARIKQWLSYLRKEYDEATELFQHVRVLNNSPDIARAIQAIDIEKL

DusB = target: T3, DusB (Escherichia coli, UniProt P0ABT5); assay: flavin bound to the purified protein; type: binding; settings: non-covalent; flavin named FMN elsewhere in the paper
T3 construct: expression construct, tags and host not described
T3 sequence (P0ABT5 1-321): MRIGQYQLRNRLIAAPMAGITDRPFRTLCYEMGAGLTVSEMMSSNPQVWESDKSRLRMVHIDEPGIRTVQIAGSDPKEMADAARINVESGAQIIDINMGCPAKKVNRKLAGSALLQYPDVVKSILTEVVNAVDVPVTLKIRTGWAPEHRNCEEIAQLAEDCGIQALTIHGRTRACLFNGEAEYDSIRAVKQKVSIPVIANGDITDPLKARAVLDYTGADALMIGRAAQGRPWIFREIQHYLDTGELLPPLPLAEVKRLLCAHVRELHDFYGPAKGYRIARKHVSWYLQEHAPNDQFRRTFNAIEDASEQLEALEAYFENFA

[1] = substrate: NC(=O)C1=CN([C@@H]2O[C@H](COP(=O)(O)OP(=O)(O)OC[C@H]3O[C@@H](n4cnc5c(N)ncnc54)[C@H](OP(=O)(O)O)[C@@H]3O)[C@@H](O)[C@H]2O)C=CC1; assay: NADPH oxidase, spectrophotometric, steady state; type: biochemical, Escherichia coli; settings: air (O2) as final electron acceptor, 50 mM HEPES pH 7.5, 150 mM NaCl, 15% glycerol, no tRNA

In the case of `Cc1cc2nc3c(=O)[nH]c(=O)nc-3n(C[C@H](O)[C@H](O)[C@H](O)COP(=O)(O)O)c2cc1C` [FMN], the “flavin bound to the purified protein” value (DusA) is reported as “exhibited non-covalently bound flavin, associated with the apoproteins”, the “flavin bound to the purified protein” value (DusC) is reported as “exhibited non-covalently bound flavin, associated with the apoproteins” and the “flavin bound to the purified protein” value (DusB) is reported as “exhibited non-covalently bound flavin, associated with the apoproteins”.

B1: DusA (Escherichia coli K-12) (protein)
chain: MHGNSEMQKINQTSAMPEKTDVHWSGRFSVAPMLDWTDRHCRYFLRLLSRNTLLYTEMVTTGAIIHGKGDYLAYSEEEHPVALQLGGSDPAALAQCAKLAEARGYDEINLNVGCPSDRVQNGMFGACLMGNAQLVADCVKAMRDVVSIPVTVKTRIGIDDQDSYEFLCDFINTVSGKGECEMFIIHARKAWLSGLSPKENREIPPLDYPRVYQLKRDFPHLTMSINGGIKSLEEAKAHLQHMDGVMVGREAYQNPGILAAVDREIFGSSDTDADPVAVVRAMYPYIERELSQGTYLGHITRHMLGLFQGIPGARQWRRYLSENAHKAGADINVLEHALKLVADKR
notes: expression construct, tags and host not described
Work on B1 yielded a Km [1] of 17 ± 3 µM and a kcat [1] of 0.48 ± 0.072 s⁻¹.
